Assays:
[1] = molecular target: human serum albumin (HSA) (Homo sapiens, UniProt P02768); test: Isothermal scanning calorimetry (ITC) of ligand association with HSA; format: binding; settings: for Kd: ligand 400 μM injected into HSA 10 μM, PBS pH 7.4, 23° C., read-out: Association-constant to HSA K (Ka) (converted)
Protocol: The data was obtained for 15 automatic injections each of 2.7 The total duration of the experiments was 45 min (2A). […] Sample cell contained HSA at a concentration of 10 μM. Both components were dissolved in PBS-buffer pH=7.4. The experiment was conducted at 23° C.
(iv) Isothermal scanning calorimetry measurements were performed with iTC200 microcalorimeter (MicroCal LLC, Nothampton Mass., USA), according to the manufacturer's instructions.

[2] = tested on: E. Coli; settings: previously disclosed (Shechter et al., 2002; Marcus et al., 2008); read-out: IC50, inhibition of E. Coli replication; cited from earlier work
[3] = molecular target: HSA (Homo sapiens, UniProt P02768); settings: immobilized HSA binding strategy, Markusen et al., 1996; cited from earlier work
[4] = background statement; cited from earlier work
[5] = tested on: CD1-mice; settings: at any dosage, previously described; cited from earlier work

Sequence of human serum albumin (HSA) (P02768 25-609): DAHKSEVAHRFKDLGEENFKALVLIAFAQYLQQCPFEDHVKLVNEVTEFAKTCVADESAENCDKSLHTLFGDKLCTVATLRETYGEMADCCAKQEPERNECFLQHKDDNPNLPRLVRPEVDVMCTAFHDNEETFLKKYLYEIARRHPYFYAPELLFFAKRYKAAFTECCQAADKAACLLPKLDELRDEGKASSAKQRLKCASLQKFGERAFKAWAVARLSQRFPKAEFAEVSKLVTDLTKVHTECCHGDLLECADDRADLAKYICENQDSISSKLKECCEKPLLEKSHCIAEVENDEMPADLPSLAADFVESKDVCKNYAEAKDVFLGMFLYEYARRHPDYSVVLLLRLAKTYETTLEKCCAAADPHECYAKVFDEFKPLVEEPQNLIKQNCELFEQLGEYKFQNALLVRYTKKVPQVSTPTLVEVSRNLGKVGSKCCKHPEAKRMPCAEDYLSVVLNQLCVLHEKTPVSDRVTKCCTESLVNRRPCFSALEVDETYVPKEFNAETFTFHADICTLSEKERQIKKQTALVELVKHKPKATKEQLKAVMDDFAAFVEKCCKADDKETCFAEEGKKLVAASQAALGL
Sequence of HSA (P02768 25-609): as above

For `O=C(O)CCCCCCCCCCSC1CC(=O)NC1=O` (stereo not shown), the Kd [1] was 7.69 µM.
For `O=C(O)CNC(=O)OCC1c2cc(NC(=O)CCN3C(=O)C=CC3=O)ccc2-c2ccc(S(=O)(=O)O)cc21` (stereo not shown) [Glycine-FMS-MAL, 2-(((2-(3-(2,5-dioxo-2,5-dihydro-1H-pyrrol-1-yl)propanamido)-7-sulfo-9H-fluoren-9-yl)methoxy)carbonylamino)acetic acid], the Kd [1] was 7.14 µM.
In the case of `O=C(O)CCCCCCCCCCCCCCCSC1CC(=O)NC1=O` (stereo not shown) [MAL-S—(CH2)15—COOH, 16-(2,5-dioxopyrrolidin-3-ylthio)hexadecanoic acid], the Kd [1] is reported as 6.45 µM.
In the case of Gentamicin, the IC50 [2] is given as 2.1 ± 0.2 µM.
In the case of “N^εB29-tetradecanoyl des(B30) insulin [insulin-detemir]”, the “Ka, binding affinity to HSA” value [3] is listed as 2.4±0.7×10^5 M^−1, the duration of action [4] is listed as “up to 24 hours” and the “N (binding sites, OneSites model)” value ([1]; PBS pH 7.4) is listed as 0.693±0.0430 sites. The “ΔH of binding to HSA” value ([1]; PBS pH 7.4) was -4.575 ± 0.4067 kcal/mol and the “ΔS of binding to HSA” value ([1]; PBS pH 7.4) was 6.79 (cal/mol)/deg.
For exendin-4, the “threshold decrease of circulating blood glucose level” value [5] is listed as 27±3%.

Source: US20120134977A1 (YEDA RESEARCH AND DEVELOPMENT CO. LTD., priority 2009, published 2012)
